Values joined by “and” are separate entries in the source; they are usually repeats but may differ in a detail not shown here. Equal entries are not always repeated. “Also recorded” adds a separate entry of the source. Where two headings read alike, the source gives them in different places.
Experiments:
[1] = system: renal artery; experiment: Pre-clinical trial: renal artery ethanol ablation (renal denervation) with triple-needle single-balloon catheter
[2] = system: hepatic, splenic, celiac, right renal and left renal arteries; details: patient B; for fasting glucose: base 186 mg/dL
Description: (§1) In another example, multiple arteries/tissues were treated for hypertension. […] Patient B had 5 years of hypertension history. Patient B went through the same procedure and ablation treatment method as patient A in Example 3.
In another example, multiple arteries/tissues were treated for diabetes.

[3] = system: hepatic, splenic, celiac, right renal and left renal arteries; details: patient B; for average 24-hour ambulatory blood pressure, DBP: base 79; for average 24-hour ambulatory blood pressure, SBP: base 136
Description: as §1

[4] = system: renal arteries, hepatic artery, splenic artery, and the left gastric artery; details: patient A; for Body weight: base 103 kg; for 24-Hour blood pressure, DBP / 24-Hour blood pressure, SBP: average 24-hour ambulatory; for 24-Hour blood pressure, DBP: base 109; for 24-Hour blood pressure, SBP: base 164; for High-density lipoprotein (HDL): base 39 mg/dL; for Triglycerides: base 336 mg/dL
Description: The targeted arteries for their treatment were renal arteries, hepatic artery, splenic artery, and the left gastric artery.
In the procedure, modest sedation per the institution's standard practice was used and no general anesthesia was used. The arteries were engaged using a 7F guiding catheter, introduced via the femoral artery. Angiography was performed of the arteries before intervention. All four arteries were treated in the same procedure. The treatment started at upper body arteries in the order of splenic, hepatic, left gastric, left renal, and right renal arteries. After the initial angiography survey of the hepatic artery, splenic artery and left gastric artery, the rapid-exchange version of the triple-needle single-balloon catheter was advanced through the guiding catheter and into the artery over a guiding wire.
The maximum catheter needle span diameter was about 12 mm, and the span diameter was adjustable per artery diameter. […] The function of this balloon was to center the distal head/shaft without over-stretching the artery.
The infusion time was within 10 seconds for each application. […] The treatment steps were repeated for the second treatment (balloon inflation, needle deployment, infusion ablation, needle withdrawal, balloon deflation). The total volume of the alcohol used in the two treatments was 1.2 mL for the splenic artery.
The same treatment method and procedure steps as in the treatment of the splenic artery were used for common hepatic artery ablation. The catheter was replaced with a fresh catheter for the common hepatic artery ablation. There were two treatments total at about 15 mm apart of each other (between the treatment sites) for the common hepatic artery with the same ablation dosage of 0.6 mL. The total volume of the alcohol used for the hepatic artery ablation was 1.2 mL. After the hepatic treatment, the catheter was placed into the left gastric artery for next ablation treatment. Again, the same treatment method and procedure was used, with the exception that one ablation treatment of 0.6 mL of the alcohol was applied for the left gastric artery. Angiography was performed after the withdrawal of the triple-needle balloon delivery catheter.
After the ablation treatments of the three arteries above, angiography was performed of the renal arteries before intervention. The suitable branches and main arteries were assessed and predetermined for treatment. After the assessment, the triple-needle balloon delivery catheter was advanced through the guiding catheter and over the guiding wire into the branch artery of left renal arteries and stopped just beyond the bifurcated area.

[5] = system: hepatic artery; experiment: Pre-clinical trial: hepatic artery ethanol ablation (hepatic denervation) with triple-needle single-balloon catheter
[6] = system: hepatic, splenic, celiac, right renal and left renal arteries; details: patient B; for Body weight: base 83 kg
Description: as §1
In another example, multiple arteries/tissues were treated for managing body weight. The patient B with 3 years of obesity history had their body weight improved after the ablation procedure. The treated multiple arteries were hepatic, splenic, celiac, right renal and left renal arteries.

[7] = maintained at 3 months follow-up

For `CCO` [ethanol], the “histopathologic evaluation of renal arteries and surrounding tissues” value ([1]; after ethanol ablation, FIG. 11) was “renal nerve injury; also recorded: severed renal nerves necrosis”, the “renal arterial spasms (post-ablation renal angiograms)” value ([1]; during and after the infusion treatment) was “no significant renal arterial spasms” and the “average renal tissue NE content, treated side” value ([1]; porcine renal cortex, two weeks after treatment, HPLC, control side 87 ng/g) was 4.9 ng/g. The “reduction in renal norepinephrine concentration” value ([1]; porcine, two weeks after treatment, treated side vs contralateral untreated renal artery side (control 87 ng/g), total 1.8 mL) was 94%, the gross necropsy ([1]; two weeks after treatment) was “all treatment related organs were normal” and the “fasting glucose level change from baseline” value ([2]; 1-month follow-up) was −50%. For the same compound, the fasting glucose ([2]; 1 mo) was 92 mg/dL, the “fasting glucose level change from baseline” value ([2]; 2 weeks follow-up) was −32% and the fasting glucose ([2]; 2 wks) was 127 mg/dL. The “HbA1c improvement from the baseline, absolute value” ([2]; 3 months after the procedure) was −2.1%, the HbA1c percent reduction ([2]; 3 months after the procedure, relative to baseline) was about 26% and the “fasting glucose level reduction from the baseline” value ([2]; 3 months follow-up) was −41%. The fasting glucose ([2]; 3 mos) was 110 mg/dL, the “Blood sugar HbA1c” value ([2]; 3 mos, base 8.1%) was 6.0% and the “average 24-hour ambulatory blood pressure, DBP” value ([3]; 1 mo) was 61 mmHg. The “average 24-hour ambulatory blood pressure, SBP” value ([3]; 1 mo) was 107 mmHg, the “diastolic (DBP) blood pressure drop from the baseline” value ([3]; 1 month follow-up) was about 23% and the “systolic (SBP) blood pressure drop from the baseline” value ([3]; 1 month follow-up) was “about 21%”. For the same compound, the “average 24-hour ambulatory blood pressure, DBP” value ([3]; 3-mo) was 66 mmHg, the “average 24-hour ambulatory blood pressure, SBP” value ([3]; 3-mo) was 115 mmHg and the “DBP percentage drop from baseline level” value ([3]; 3 month follow-up) was “about 15%”. For the same compound, the “SBP percentage drop from baseline level” value ([3]; 3 month follow-up) was “about 15%”, the Body weight ([4]; 1 mo post-procedure) was 95.6 kg and the “24-Hour blood pressure, DBP” value ([4]; 1 mo) was 87 mmHg. The “24-Hour blood pressure, SBP” value ([4]; 1 mo) was 140 mmHg, the “High-density lipoprotein (HDL)” value ([4]; 1 mo) was 43 mg/dL and the Triglycerides ([4]; 1 mo) was 139 mg/dL. The Body weight ([4]; 2 wk post-procedure) was 96.2 kg, the “High-density lipoprotein (HDL)” value ([4]; 2 wks) was 42 mg/dL and the Triglycerides ([4]; 2 wks) was 160 mg/dL. For the same compound, the TG/HDL ratio ([4]; 3-month follow-up, 8.6 at baseline, normal range <5) was 4.2, the “24-Hour blood pressure, DBP” value ([4]; 3 mo) was 84 mmHg and the “24-Hour blood pressure, SBP” value ([4]; 3 mo) was 141 mmHg. The “HbA1c value change vs baseline” value ([4]; 3 months follow-up, absolute change) was about −1%, the Body weight ([4]; 3 mos post-procedure) was 96.2 kg and the “High-density lipoprotein (HDL)” value ([4]; 3 mos) was 40 mg/dL. For the same compound, the Triglycerides ([4]; 3 mos) was 167 mg/dL, the “Blood sugar level, HbA1c” value ([4]; 3 mos, base 7.5%) was 6.6% and the “weight loss, reduction” value ([4]; since week 3 (2 wk time point), maintained at 3 months) was “about 7%”. The triglyceride level reduction ([4]; two weeks follow-up) was “about 50%”, the “diastolic (DBP) blood pressure drop from the baseline” value [4, 7] was about 20% and the “systolic (SBP) blood pressure drop from the baseline” value [4, 7] was “about 14%”. The “arterial spasms (hepatic angiograms)” value ([5]; during and after the infusion treatment, both animals) was “no significant arterial spasms”, the “average liver NE concentration reduction” value ([5]; one value per animal (two animals), two weeks after treatment, vs untreated control animal, 2 x 0.6 mL) was 85% and 94% and the gross necropsy ([5]; two weeks after the treatment) was “all treatment related organs were normal”. The Body weight ([6]; 1 mo) was 79.9 kg, the “initial body weight loss from the baseline” value ([6]; 2 weeks follow-up) was −4.5% and the Body weight ([6]; 2 wks) was 79.3 kg. The Body weight ([6]; 3 mos) was 79.1 kg.

Reference: patent US20220233238A1, “DELIVERY CATHETER AND METHOD OF DISEASE TREATMENT” (Neurotronic, Inc., priority 2019, published 2022)
